One experiment deals with SU(dx)-WW4. To be noted: cited from earlier work.
Experiment [1] has as its target T1, hNEDD4-WW3 (Homo sapiens, UniProt P46934).
T1 construct: comprising aminoacids 834–878 (UniProtKB/Swiss-Prot code P46934); GST-His (pETM-30, TEV site) (N, cleaved yes); made in house; host or cells: E. coli BL21/DE3 is printed only for the pETM-11 NMR construct
To be noted: cited from earlier work.

Experiment [2] deals with T1, hNEDD4-WW3.
For experiment [3], the target named is T2, hYAP-WW1 (Homo sapiens, UniProt P46937).
T2 construct: comprising aminoacids 165–209 and 228–271 respectively (UniProtKB/Swiss-Prot code Q7Z574); GST-His (pETM-30, TEV site) (N, cleaved yes); made in house
Put plainly: biochemical. The class given is binding.

Experiment [4] concerns the target T1, hNEDD4-WW3. Put plainly: biochemical. The class given is binding.
Experiment [5] deals with T3, hYAP-WW2 (Homo sapiens, UniProt P46937).
T3 construct: comprising aminoacids 165–209 and 228–271 respectively (UniProtKB/Swiss-Prot code Q7Z574); GST-His (pETM-30, TEV site) (N, cleaved yes); made in house
The class given is binding. As to conditions: pH 7.

In the next experiment the target is rNEDD4-WW2. To be noted: cited from earlier work.
Experiment [6] addresses T1, hNEDD4-WW3. The experiment in a line: biochemical. The class given is binding. This is another data set of the same source.
The target of experiment [7] is T2, hYAP-WW1. The experiment is classed as binding. As to conditions: pH 7.
Another experiment deals with hITCHY-WW3. As to conditions: cited from earlier work.
Experiment [8] deals with T2, hYAP-WW1. To be noted: cited from earlier work.
Another experiment deals with hNEDD4L-WW3. To be noted: cited from earlier work.
A further experiment deals with SMURF1-WW2. To be noted: cited from earlier work.
Experiment [9] deals with T3, hYAP-WW2. To be noted: cited from earlier work.
A further experiment addresses NEDD4L-WW2. To be noted: cited from earlier work.
The target of a further experiment is SMURF2-WW3. To be noted: cited from earlier work.
Another experiment concerns the target dNEDD4-WW3. To be noted: cited from earlier work.

Where “and” joins values, the source holds several entries; their conditions need not be identical. Equal entries are not always repeated. Where two headings read alike, the source gives them in different places. Residues, ends and D or L forms follow the SMILES beside them. No end group written: not given here.

These results are taken from paper PMC6803667, “Binding site plasticity in viral PPxY Late domain recognition by the third WW domain of human NEDD4” (Scientific Reports, 2019).

T1 sequence (P46934 834-878): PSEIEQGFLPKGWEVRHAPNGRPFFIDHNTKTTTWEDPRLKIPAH
T2 sequence (P46937 165-209): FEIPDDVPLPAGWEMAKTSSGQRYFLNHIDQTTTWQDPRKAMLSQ
T3 sequence (P46937 228-271): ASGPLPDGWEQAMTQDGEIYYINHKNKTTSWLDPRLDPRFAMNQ

In general, Kd refers to the constant that tells how readily two partners part at equilibrium. Take “NTGAKQPPSYEDCIK [Notch, Notch peptide of literature complex 2JMF]”: the Kd at SU(dx)-WW4 is 45 µM.
Turning to “TAPPPAYATLG [αENaC, αENaC PY motif peptide of literature complex 2M30]”, in the experiment with hNEDD4-WW3 [1], the Kd is 45 µM and the “ΔH exp (25C)” value is reported as -58,2 kJ·mol -1. Further, the ΔH conf at hNEDD4-WW3 [2] is reported as -48,29 kJ·mol -1.
`CC(=O)N1CCC[C@H]1C(=O)N1CCC[C@H]1C(=O)N1CCC[C@H]1C(=O)N[C@@H](Cc1ccc(O)cc1)C(N)=O` [PPPY] (Ac-PPPY-NH2): the values for the Kd at hYAP-WW1 [3], on hNEDD4-WW3 [4] and at hYAP-WW2 [5] were 320 ± 30 µM, 201 µM and “n. b”, respectively. Further, the figures for the ΔHap entry on hYAP-WW1 [3] (pH 7) and on hNEDD4-WW3 [4] (pH 7) were “^*−39 ± 3 kJ mol^−1” and “^*−38 ± 1 kJ mol^−1”, respectively.
Take “RPE−5AP−3P−2SY0AEVVT (RPEAPPSYAEVVT) [ARRDC3]”: the Kd with hNEDD4-WW3 [1] was 3.3 µM and 3 µM.
With “APLpSPMpSPPGYKLV [CX43-Cter, Cx43 carboxyl terminus peptide of literature complex 2N8T]”, the Kd at rNEDD4-WW2 was 430 µM.
As for `CC[C@H](C)[C@H](NC(=O)[C@H](CCC(N)=O)NC(=O)[C@@H]1CCCN1C(=O)[C@H](CC(=O)O)NC(=O)[C@H](CO)NC(C)=O)C(=O)N1CCC[C@H]1C(=O)N1CCC[C@H]1C(=O)N1CCC[C@H]1C(=O)N[C@@H](Cc1ccc(O)cc1)C(=O)N[C@H](C(=O)N[C@@H](CCC(=O)O)C(=O)N1CCC[C@H]1C(N)=O)C(C)C` [HTLV1] (Ac-SDPQIPPPYVEP-NH2), the “ΔΔH HTLV-Ebola” value at hNEDD4-WW3 [6] was −20 kJ/mol^−1. For the same compound, at hNEDD4-WW3 [2], the “amount by which theoretical enthalpy is smaller than the experimental enthalpy” value was 50 kJ/mol and the ΔH conf is given as -49,97 kJ·mol -1.
In the case of “GSTLPIPGTPPPNYDSL [βENaC, βENaC peptide of literature complex 1I5H]”, the dissociation constant (Kd) in the experiment with hNEDD4-WW3 [1] is 21 µM.
For the compound `CC(=O)N[C@@H](CC(=O)O)C(=O)N[C@@H](CC(C)C)C(=O)N[C@@H](Cc1c[nH]c2ccccc12)C(=O)N[C@@H](CC(C)C)C(=O)N1CCC[C@H]1C(=O)N1CCC[C@H]1C(=O)N1CCC[C@H]1C(=O)N[C@@H](CCC(=O)O)C(=O)N[C@@H](Cc1ccc(O)cc1)C(=O)N[C@H](C(=O)N1CCC[C@H]1C(=O)N[C@@H](CC(C)C)C(N)=O)C(C)C` [Rabies], the Kd on hNEDD4-WW3 [6] was 51 ± 1 µM; on hYAP-WW2 [5] it was “n. b”. Also, the ΔHap was -65.8 ± 0.8 kJ/mol on hNEDD4-WW3 [6] (pH 7) and -63.7 ± 0.9 kJ/mol on hYAP-WW1 [7].
For `CC(=O)N1CCC[C@H]1C(=O)N1CCC[C@H]1C(=O)N1CCC[C@H]1C(=O)N[C@@H](Cc1ccc(O)cc1)C(=O)N[C@H](C(=O)N[C@@H](CCC(=O)O)C(=O)N1CCC[C@H]1C(=O)N[C@H](C(=O)N[C@@H](C)C(=O)N1CCC[C@H]1C(N)=O)[C@@H](C)O)C(C)C` [HTLV1 ter] (Ac-PPPYVEPTAP-NH2), the ΔHap at hNEDD4-WW3 [6] (pH 7) was -74.0 ± 0.8 kJ/mol. Moreover, the Kd result at hYAP-WW1 [7] and at hYAP-WW2 [5] was “n. b” in each case.
Consider “EEPPPPYED [Epstein-Barr, Epstein-Barr peptide of literature complex 2JO9]”, for which, at hITCHY-WW3, the Kd is 52 µM.
On to RPE−5AP−3P−2SY0AEVVT [ARRDC3], for which, on hNEDD4-WW3 [1], the “ΔH exp (25C)” value is given as -75,4 kJ·mol -1. The ΔH conf on hNEDD4-WW3 [2] is -64,67 kJ·mol -1.
On to `CC(=O)N[C@@H](CCC(=O)O)C(=O)N[C@@H](Cc1ccc(O)cc1)C(=O)N1CCC[C@H]1C(=O)N1CCC[C@H]1C(=O)N[C@@H](Cc1ccc(O)cc1)C(=O)N1CCC[C@H]1C(=O)N1CCC[C@H]1C(=O)N1CCC[C@H]1C(=O)N1CCC[C@H]1C(=O)N[C@@H](Cc1ccc(O)cc1)C(=O)N1CCC[C@H]1C(=O)N[C@@H](CO)C(=O)NCC(N)=O` [p53bp2] (Ac-EYPPYPPPPYPSG-NH2), for which, at hNEDD4-WW3 [6], the “binding selectivity between hNEDD4-WW3, YAP-WW1 and YAP-WW2” value was “do not distinguish between the three WW domains”; the Kd was 4.1 µM and 5.3 µM and 9.1 µM. The ΔCp on hNEDD4-WW3 [6] (pH 7) is −1.59 kJ K^−1 mol^−1 and −1.59 ± 0.01 kJ K^−1 mol^−1. The compound also returned a ΔHap on hYAP-WW2 [5] of -57 ± 1 kJ/mol.
On to “PLPPY [peptide of literature complex 1K9R]”, for which, in the experiment with hYAP-WW1 [8], the Kd is 500 µM.
Take “GTPPPPYTVG [WBP1, WBP1 peptide of literature complex 1JMQ]”: the Kd in the experiment with hYAP-WW1 [8] was 40 µM.
As for `CC[C@H](C)[C@H](NC(C)=O)C(=O)N[C@@H](CC(C)C)C(=O)N1CCC[C@H]1C(=O)N[C@H](C(=O)N[C@@H](C)C(=O)N1CCC[C@H]1C(=O)N1CCC[C@H]1C(=O)N[C@@H](CCC(=O)O)C(=O)N[C@@H](Cc1ccc(O)cc1)C(=O)N[C@@H](CCSC)C(=O)N[C@@H](CCC(=O)O)C(=O)N[C@@H](C)C(N)=O)[C@@H](C)O` [Ebola], at hNEDD4-WW3 [2], the “amount by which theoretical enthalpy is smaller than the experimental enthalpy” value is 30 kJ/mol and the ΔH conf was -30,01 kJ·mol -1.
Compound `CSCC[C@H](NC(C)=O)C(=O)N[C@@H](CCC(N)=O)C(=O)N[C@@H](Cc1ccc(O)cc1)C(=O)N[C@@H](CC(C)C)C(=O)N[C@@H](CC(N)=O)C(=O)N1CCC[C@H]1C(=O)N1CCC[C@H]1C(=O)N1CCC[C@H]1C(=O)N[C@@H](Cc1ccc(O)cc1)C(=O)N[C@@H](C)C(=O)N[C@@H](CC(=O)O)C(=O)N[C@@H](Cc1c[nH]cn1)C(N)=O` [Marburg] had a Kd on hNEDD4-WW3 [6] of 51 ± 1 µM. In addition, the ΔHap on hNEDD4-WW3 [6] (pH 7) is -73.2 ± 0.7 kJ/mol.
With “RLDLPPYETFEDI [HECT-Cterm, HECT C-terminal peptide of literature complex 2MPT]”, the Kd at hNEDD4L-WW3 was 4 µM.
“ELESPPPPYSRYPMD [Smad7, Smad7 peptide […] of literature complexes 2LTY, 2LTX, 2LTZ, 2LTV, 2LTW]”: the Kd on SMURF1-WW2 was 4.2 µM; with hYAP-WW1 [8], 6.9 µM; with hYAP-WW2 [9], 60 µM; at NEDD4L-WW2 it was 4.2 µM; at SMURF2-WW3 it was 4.5 µM.
As for “TGLPSYDEALH [Comm, Comm PY motif peptide of literature complex 2EZ5]”, the Kd at dNEDD4-WW3 was 3.1 µM.
Take “GPPPY ({n‑octyl}-GPPPY) [peptide of literature complex 1K9Q]”: in the experiment with hYAP-WW1 [8], the Kd is 700 µM.
